# Laboratory results as given in PMC11259132, “Tyrosine phenol-lyase inhibitor quercetin reduces fecal phenol levels in mice” (PNAS Nexus, 2024).
# Read-outs that look alike come from different tables or passages of the source.
# How the values were obtained:
# Format in all cases: biochemical
# [1] = molecular target: T1, Tyrosine phenol-lyase (TPL) (Morganella morganii, UniProt J7TAF3); assay: recombinant TPL assay, phenol by LC-MS; Lineweaver-Burk kinetics
# T1 construct: recombinant TPL from M. morganii ssp. morganii (JCM1672), pET-15b
# T1 sequence (J7TAF3 1-456): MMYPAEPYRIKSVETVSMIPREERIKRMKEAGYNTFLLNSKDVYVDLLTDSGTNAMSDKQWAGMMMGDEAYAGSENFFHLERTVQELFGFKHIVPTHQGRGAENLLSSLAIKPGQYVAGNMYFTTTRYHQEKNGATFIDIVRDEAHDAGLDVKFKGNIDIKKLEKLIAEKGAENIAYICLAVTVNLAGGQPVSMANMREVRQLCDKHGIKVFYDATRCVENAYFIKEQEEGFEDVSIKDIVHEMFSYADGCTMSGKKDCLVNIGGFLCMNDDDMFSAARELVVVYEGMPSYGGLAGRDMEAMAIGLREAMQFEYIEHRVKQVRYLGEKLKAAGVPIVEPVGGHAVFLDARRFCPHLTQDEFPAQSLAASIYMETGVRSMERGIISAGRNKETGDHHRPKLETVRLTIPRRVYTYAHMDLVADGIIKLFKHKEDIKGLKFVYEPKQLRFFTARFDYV
# [2] = molecular target: T1, Tyrosine phenol-lyase (TPL)
# [3] = molecular target: T2, Tyrosine phenol-lyase (TPL) (Citrobacter koseri, UniProt A8AM34); assay: recombinant TPL assay at […] inhibitor, phenol by LC-MS
# T2 construct: recombinant TPL from C. koseri (JCM1658), pET-15b
# T2 sequence (A8AM34 1-465): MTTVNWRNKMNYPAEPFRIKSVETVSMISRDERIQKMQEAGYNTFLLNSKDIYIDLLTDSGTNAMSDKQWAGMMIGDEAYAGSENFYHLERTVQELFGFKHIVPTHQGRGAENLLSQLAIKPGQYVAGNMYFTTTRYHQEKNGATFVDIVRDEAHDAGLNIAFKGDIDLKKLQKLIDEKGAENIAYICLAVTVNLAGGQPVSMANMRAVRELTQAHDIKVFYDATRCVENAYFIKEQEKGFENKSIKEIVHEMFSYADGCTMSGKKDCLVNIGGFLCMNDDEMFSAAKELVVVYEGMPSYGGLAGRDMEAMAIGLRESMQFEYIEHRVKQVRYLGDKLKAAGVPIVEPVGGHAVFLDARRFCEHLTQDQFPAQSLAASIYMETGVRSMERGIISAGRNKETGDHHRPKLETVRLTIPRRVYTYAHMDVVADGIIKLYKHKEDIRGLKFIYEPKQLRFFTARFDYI
SMILES,"recombinant TPL assay at 500 μM inhibitor, phenol by LC-MS [2]",also measured
N[C@@H](Cc1ccc(O)cn1)C(=O)O [2-aza-Tyr],,Ki ([1]; read-out: Ki): 42 µM
O=c1c(O)c(-c2ccc(O)cc2)oc2cc(O)cc(O)c12 [kaempferol],"structural analogs of quercetin, including taxifolin, kaempferol, luteolin, and myricetin, significantly inhibited TPL-catalyzed phenol production",
O=c1cc(-c2ccc(O)c(O)c2)oc2cc(O)cc(O)c12 [luteolin],"structural analogs of quercetin, including taxifolin, kaempferol, luteolin, and myricetin, significantly inhibited TPL-catalyzed phenol production",
O=c1c(O)c(-c2ccc(O)c(O)c2)oc2cc(O)cc(O)c12 [quercetin],,"recombinant TPL assay at 500 μM inhibitor, phenol by LC-MS [3]: The strongest inhibitory activity of quercetin was confirmed using another recombinant TPL isolated from Citrobacter koseri (JCM1658; Fig. 1B); Ki [1]: 19.9 µM"
O=C1c2c(O)cc(O)cc2O[C@H](c2ccc(O)c(O)c2)[C@H]1O [taxifolin],"structural analogs of quercetin, including taxifolin, kaempferol, luteolin, and myricetin, significantly inhibited TPL-catalyzed phenol production",
